Experimental data: ChEMBL document CHEMBL6109117, “Synthesis of an RBM39 Degrader That Downregulates CEP192 and Induces Disorganized Spindle Structures” (J Med Chem, 2025)
Each block holds one compound with its values, some of them ahead of it. Activity calls are given as the source filed them. The calls are words filed in the database; no cut-off is given here.

How the values were obtained:
MV4-11 [1] = test: Induction of spliceosome function impairment in human MV4-11 cells assessed as increase in CUL4A RI transcript incubated for 12 hrs by qRT-PCR analysis; assay type: functional, cell-based; settings: dose 1-10 µM
HCT-116 [2] = test: Downregulation of CENPI expression in human HCT-116 cells incubated for 24 hrs by Western blot analysis; assay type: functional, cell-based
K562 [3] = test: Effect on RNA splicing in human K562 cells assessed as ESPL1 gene alternative 5' splicing site at 2 uM incubated for 12 hrs by RNA-seq analysis; assay type: functional, cell-based
HCT-116 [4] = test: Induction of RBM39 degradation in human HCT-116 cells at 0.05 to 5 uM incubated for 24 hrs in presence of MG132 by Western blot analysis; assay type: cell-based; settings: dose 0.05-5 µM
HCT-116 [5] = test: Induction of RBM39 degradation in human HCT-116 cells assessed as fold change at 0.1 uM incubated for 24 hrs by Western blot analysis relative to control; assay type: cell-based
HCT-116 [6] = test: Effect on RNA splicing in human HCT-116 cells assessed as MCL-1 gene alternative splicing at 2 uM incubated for 12 hrs by RNA-seq analysis; assay type: functional, cell-based
K562 [7] = test: Effect on RNA splicing in human K562 cells assessed as CEP192 gene skipping exons up to 10 uM by PCR analysis; assay type: functional, cell-based; settings: time 1-24 hrs
HCT-116 [8] = test: Induction of cell cycle arrest in human HCT-116 cells assessed as accumulation at G2/M phase at 5 uM incubated for 48 hrs by PI staining based flow cytometry relative to control; assay type: functional
[9] = Effect on mitosis in human HCT-116 cells assessed as defective mitotic cells at 1 uM incubated for 48 hrs by immunofluorescence based analysis relative to control; assay type: functional
K562 [10] = test: Effect on RNA splicing in human K562 cells assessed as CEP192 gene alternative 3' splicing site at 2 uM incubated for 12 hrs by RNA-seq analysis; assay type: functional, cell-based
HCT-116 [11] = test: Induction of RBM39 degradation in human HCT-116 cells incubated for 24 hrs by Western blot analysis; assay type: cell-based
HCT-116 [12] = test: Downregulation of KNL1 expression in human HCT-116 cells incubated for 24 hrs by Western blot analysis; assay type: functional, cell-based
MV4-11 [13] = test: Induction of spliceosome function impairment in human MV4-11 cells assessed as decrease in ZNF207 transcript at 1 to 10 uM incubated for 12 hrs by qRT-PCR analysis; assay type: functional, cell-based; settings: dose 1-10 µM
[14] = Effect on RNA splicing in human HCT-116 cells assessed as number of retention of introns at 2 uM incubated for 12 hrs by RNA-seq analysis; assay type: functional
MV4-11 [15] = test: Induction of spliceosome function impairment in human MV4-11 cells assessed as decrease in CUL4A transcript at 1 to 10 uM incubated for 12 hrs by qRT-PCR analysis; assay type: functional, cell-based; settings: dose 1-10 µM
MV4-11 [16] = test: Induction of spliceosome function impairment in human MV4-11 cells assessed as increase in NCKAP1L RI transcript incubated for 12 hrs by qRT-PCR analysis; assay type: functional, cell-based; settings: dose 1-10 µM
HCT-116 [17] = test: Effect on RNA splicing in human HCT-116 cells assessed as ESPL1 gene exon splicing at 2 uM incubated for 12 hrs by RNA-seq analysis; assay type: functional, cell-based
HCT-116 [18] = test: Effect on mitosis in human HCT-116 cells assessed as disorganized spindle phenotype at 1 uM incubated for 48 hrs by immunofluorescence based analysis; assay type: functional, cell-based
K562 [19] = test: Induction of spliceosome function impairment in human K562 cells assessed as decrease in PRPF38A transcript at 1 to 10 uM incubated for 12 hrs by qRT-PCR analysis; assay type: functional, cell-based; settings: dose 1-10 µM
[20] = Effect on RNA splicing in human HCT-116 cells assessed as number of alternative 5' splice sites at 2 uM incubated for 12 hrs by RNA-seq analysis; assay type: functional
K562 [21] = test: Induction of spliceosome function impairment in human K562 cells assessed as decrease in CUL4A transcript at 1 to 10 uM incubated for 12 hrs by qRT-PCR analysis; assay type: functional, cell-based; settings: dose 1-10 µM
HCT-116 [22] = test: Effect on RNA splicing in human HCT-116 cells assessed as RTTN gene retention of intron at 2 uM incubated for 12 hrs by RNA-seq analysis; assay type: functional, cell-based
HCT-116 [23] = test: Downregulation of RTTN expression in human HCT-116 cells incubated for 24 hrs by Western blot analysis; assay type: functional, cell-based
MV4-11 [24] = test: Induction of spliceosome function impairment in human MV4-11 cells assessed as decrease in PRPF38A transcript at 1 to 10 uM incubated for 12 hrs by qRT-PCR analysis; assay type: functional, cell-based; settings: dose 1-10 µM
K562 [25] = test: Effect on RNA splicing in human K562 cells assessed as KNL1 gene skipping exon at 2 uM incubated for 12 hrs by RNA-seq analysis; assay type: functional, cell-based
K562 [26] = test: Effect on RNA splicing in human K562 cells assessed as CEP192 gene retention of introns up to 10 uM by PCR analysis; assay type: functional, cell-based; settings: time 1-24 hrs
HCT-116 [27] = test: Induction of cell cycle arrest in human HCT-116 cells assessed as accumulation at G2/M phase at 0.1 to 5 uM incubated for 48 hrs by PI staining based flow cytometry; assay type: functional; settings: dose 0.1-5 µM
K562 [28] = test: Effect on RNA splicing in human K562 cells assessed as CEP192 gene skipping exon at 2 uM incubated for 12 hrs by RNA-seq analysis; assay type: functional, cell-based
MV4-11 [29] = test: Induction of spliceosome function impairment in human MV4-11 cells assessed as decrease in NCKAP1L transcript at 1 to 10 uM incubated for 12 hrs by qRT-PCR analysis; assay type: functional, cell-based; settings: dose 1-10 µM
[30] = Effect on mitosis in human HCT-116 cells assessed as normal mitotic cells at 1 uM incubated for 48 hrs by immunofluorescence based analysis relative to control; assay type: functional
HCT-116 [31] = test: Induction of cell cycle arrest in human HCT-116 cells assessed as accumulation at G2/M phase at 1 uM by PI staining based flow cytometry; assay type: functional
HCT-116 [32] = test: Antiproliferative activity against human HCT-116 cells incubated for 4 days by CCK8 assay; assay type: functional, cell-based; settings: HCT-116, 96 h
K562 [33] = test: Induction of spliceosome function impairment in human K562 cells assessed as decrease in ZNF207 transcript at 1 to 10 uM incubated for 12 hrs by qRT-PCR analysis; assay type: functional, cell-based; settings: dose 1-10 µM
HCT-116 [34] = test: Effect on RNA splicing in human HCT-116 cells assessed as KNL1 gene exon splicing at 2 uM incubated for 12 hrs by RNA-seq analysis; assay type: functional, cell-based
K562 [35] = test: Induction of spliceosome function impairment in human K562 cells assessed as increase in NCKAP1L RI transcript incubated for 12 hrs by qRT-PCR analysis; assay type: functional, cell-based; settings: dose 1-10 µM
K562 [36] = test: Effect on RNA splicing in human K562 cells assessed as RTTN gene skipping exon at 2 uM incubated for 12 hrs by RNA-seq analysis; assay type: functional, cell-based
HCT-116 [37] = test: Induction of RBM39 degradation in human HCT-116 cells assessed as fold change at 1 uM incubated for 24 hrs by Western blot analysis relative to control; assay type: cell-based
HCT-116 [38] = test: Effect on RNA splicing in human HCT-116 cells assessed as number of alternative 3' splice sites at 2 uM incubated for 12 hrs by RNA-seq analysis; assay type: functional
HCT-116 [39] = test: Effect on RNA splicing in human HCT-116 cells assessed as ESPL1 gene alternative 5' splice site at 2 uM incubated for 12 hrs by RNA-seq analysis; assay type: functional, cell-based

IC50 (HCT-116 [32]): 36.7 nM
Structure (SMILES): Cc1ccc(NS(=O)(=O)c2cccc(NC(=O)C(=O)N3CCC[C@@H]3CO)c2)c2[nH]cc(C#N)c12
Activity (MV4-11 [1]): Active | Activity (HCT-116 [2]): Dose-dependent-effect | Activity (K562 [3]): Active | Activity (HCT-116 [4]): inactive | fold change (FC) (HCT-116 [5]): 0.61 | Activity (HCT-116 [6]): No effect | Activity (K562 [7]): Time-dependent-effect; Observed Skipping Exons 42 And 28 | Activity (HCT-116 [8]): 60% | Activity [9]: 21.8% | Activity (K562 [10]): Active | Activity (HCT-116 [11]): Dose-dependent-effect | Activity (HCT-116 [12]): Dose-dependent-effect | Activity (MV4-11 [13]): Active | Activity [14]: 1098 | Activity (MV4-11 [15]): Active | Activity (MV4-11 [16]): Active | Activity (HCT-116 [17]): Active | Activity (HCT-116 [18]): Active; Disorganized Spindle Phenotype Was Characterized By Random Microtubule Distribution Surrounding Condensed And Undivided Chromosomes | Activity (K562 [19]): Active | Activity [20]: 329 | Activity (K562 [21]): Active | Activity (HCT-116 [22]): Active | Activity (HCT-116 [23]): Dose-dependent-effect | Activity (MV4-11 [24]): Active | Activity (K562 [25]): Active | Activity (K562 [26]): Time-dependent-effect; Observed Retention Of Introns Between Exons 27 And 28 | Activity (HCT-116 [27]): Active | Activity (K562 [28]): Active | Activity (MV4-11 [29]): Active | Activity [30]: 0.8% | Activity (HCT-116 [31]): Time-dependent-effect | Activity (K562 [33]): Active | Activity (HCT-116 [34]): Active | Activity (K562 [35]): Active | Activity (K562 [36]): Active | fold change (FC) (HCT-116 [37]): 0.21 | Activity (HCT-116 [38]): 745 | Activity (HCT-116 [39]): Active

IC50 (HCT-116 [32]): 96.8 nM
Structure (SMILES): NS(=O)(=O)c1ccc(S(=O)(=O)Nc2cccc3c(Cl)c[nH]c23)cc1 [INDISULAM]
Activity (MV4-11 [1]): Active | Activity (HCT-116 [2]): Dose-dependent-effect | Activity (K562 [3]): Active | Activity (HCT-116 [4]): inactive | fold change (FC) (HCT-116 [5]): 0.59 | Activity (HCT-116 [6]): No effect | Activity (K562 [7]): Time-dependent-effect; Observed Skipping Exons 42 And 28 | Activity (HCT-116 [8]): 55% | Activity [9]: 18.3% | Activity (K562 [10]): Active | Activity (HCT-116 [11]): Dose-dependent-effect | Activity (HCT-116 [12]): Dose-dependent-effect | Activity (MV4-11 [13]): Active | Activity [14]: 1378 | Activity (MV4-11 [15]): Active | Activity (MV4-11 [16]): Active | Activity (HCT-116 [17]): Active | Activity (HCT-116 [18]): Active; Disorganized Spindle Phenotype Was Characterized By Random Microtubule Distribution Surrounding Condensed And Undivided Chromosomes | Activity (K562 [19]): Active | Activity [20]: 389 | Activity (K562 [21]): Active | Activity (HCT-116 [22]): Active | Activity (HCT-116 [23]): Dose-dependent-effect | Activity (MV4-11 [24]): Active | Activity (K562 [25]): Active | Activity (K562 [26]): Time-dependent-effect; Observed Retention Of Introns Between Exons 27 And 28 | Activity (HCT-116 [27]): Active | Activity (K562 [28]): Active | Activity (MV4-11 [29]): Active | Activity [30]: 1.4% | Activity (HCT-116 [31]): Time-dependent-effect | Activity (K562 [33]): Active | Activity (HCT-116 [34]): Active | Activity (K562 [35]): Active | Activity (K562 [36]): Active | fold change (FC) (HCT-116 [37]): 0.16 | Activity (HCT-116 [38]): 836 | Activity (HCT-116 [39]): Active
